Where a SMILES comes first, the peptide text is derived from it. The star is where a group is joined. Cbz = O=C(OCc1ccccc1)*
Tests used:
[1] = tested on: XBP-1u and XBP-1s proteins; assay: XBP-1u and XBP-1s protein levels in J558 cells (Western blot); format: cell-based
Protocol: (A) BiP and CHOP induction was examined by northern blot analysis after treating NIH3T3 or J558 myeloma cells with either MG-132 (20 μM), Tm (10 μg/ml) or both. Cells were pretreated with MG-132 for 1 hr and then further treated with Tm for 4 hrs. Ethidium bromide staining of the gel is shown at the bottom. (B) Inhibition of caspase-12 processing by proteasome inhibitors. Processing of full-length caspase-12 was examined by Western blotting in J558 myeloma cells treated with thapsigargin (1 μM) or PIs (20 μM) during the indicated time periods. (C) Alteration in the ratio of XBP-1 protein species in J558 cells were treated with increasing amounts of MG-132 for 16 hrs. Cells undergoing apoptosis were counted by Annexin V staining. (D) Time course of the XBP-1s to XBP-1u shift. Cells were treated with MG-132 (1 μM) for the indicated times and XBP-1u and spliced protein levels and cell death determined. (E) Alteration in the ratio of XBP-1 species in the MM.1s human myeloma line. Cells were treated with PS-341 (8 nM) in a time course analysis and XBP-1 protein species quantified.
(§1) Cells were lysed in RIPA buffer (50 mM Tris pH 7.4, 150 mM NaCl, 1 mM EDTA, 1% Triton X-100, 1% sodium deoxycholate, 0.1% SDS) and lysates subjected to SDS-PAGE and transferred to Hybond P membrane (Amersham-Pharmacia, Piscataway, N.J.). […] HeLa cells were cotransfected with XBP-1u and His-tagged ubiquitin expression plasmids (pMT 107, D. Bohmann, EMBL, Germany) by using the Lipofectamine-2000 reagent (Invitrogen, Carlsbad, Calif.). […] Degradation rates of XBP-1u and XBP-1s proteins were determined by pulse labeling J558 cells with ^35S Met/Cys for 1 hr and chasing for the indicated times.

IRE1α = IRE1α phosphorylation in NIH3T3 cells (Western blot); format: cell-based
Protocol: (A) XBP-1 mRNA levels in ER stressed J558 cells treated with Tm for 4 hrs in the absence or presence of MG-132. Cells were pretreated with MG-132 for 1 hr before adding Tm. XBP-1 mRNA levels were determined by Northern blot analysis. […] (C) Effect of a panel of PIs on XBP-1 splicing. Cells were treated with Tm for 4 hrs in the absence or presence of MG-132 (10 μM), PS-341 (10 μM), Lactacystin (10 μM), ZL3VS (50 μM) or AdaAhxL3VS (50 μM), and XBP-1 mRNA splicing measured by RT-PCR analysis. (D) IRE-1α phosphorylation in NIH3T3 cells were treated with Tm as indicated after 2 hrs of pretreatment with MG-132 (10 μM).
as §1

UPR target genes = assay: UPR gene and XBP-1 protein expression in MEF cells (gene array, Northern, Western blot); format: cell-based, mouse; settings: for induction of ERdj4 (XBP-1-dependent UPR target gene): XBP-1-deficient MEFs; for XBP-1u and XBP-1s protein induction: wt MEFs, 10 μM MG-132 or 10 μg/ml Tm, 6 hours
Protocol: (A) XBP-1 locus in wild type and XBP-1^−/− MEF cells. Splicing of the mutant XBP-1 mRNA in XBP-1^−/− cells is shown. * represent termination codons. (B) Wild type and XBP-1^−/− MEF cells were untreated or treated with 10 μg/ml Tm for 6 hours. […] (C) Wild type and XBP-1^−/− MEF cells were treated with 10 μM MG-132 or 10 μg/ml Tm for 6 hours. XBP-1u and XBP-1s proteins were detected by Western blot analysis with anti-XBP-1 antibody.
293T and MEF cells derived from wild type and XBP-1^−/− embryos were cultured in DMEM supplemented with 10% fetal calf serum (Hyclone Laboratories). MEF-tet-off cells (Clontech) were maintained in the same media with the addition of 100 μg/ml G418 and 1 μg/ml doxycycline. XBP-1s inducible cells were obtained by transfecting MEF-tet-off cells with the TREhyg-XBP-1s plasmid and then selecting in the presence of 400 μg/ml hygromycin B. Several clones were tested for doxycycline-dependent XBP-1s expression, and one was selected for further experiments. MEF-dn-XBP cells were generated by transfecting MEF-tet-off cells with the TREhyg-dn-XBP plasmid. […] ATF6α and β knockdown MEF cells were generated by cotransfecting wild type MEF cells with U6-iATF6α and β and cmv-puromycin or transducing cells with retroviruses containing each RNAi vector.
Total RNA was isolated from MEF cells with TRIZOL reagent (Invitrogen, Carlsbad, Calif.). cDNA synthesis, hybridization and laser scanning of the array were carried out at the Gene Array Technology Center (Brigham and Women's Hospital, Boston, Mass.) with MG-U74A GeneChips which had 6,000 functionally characterized sequences and 6,000 ESTs from the UniGene database (Affymetrix, Santa Clara, Calif.) as recommended by Affymetrix. Data analysis was performed using Affymetrix GeneChip 3.1 software under default parameter setting.
Total RNA was prepared by using Trizol reagent, electrophoresed on 1.2% agarose, 6% formaldehyde gels and then transferred onto Genescreen Plus membrane (NEN). ^32P-radiolabeled probes were prepared with the RediPrime II labeling system (Amersham-Pharmacia). Template DNAs for the probes were cut out by using appropriate restriction enzymes from the cDNA-containing plasmid (XBP-1, 15-830 of the murine coding region) or EST clones from ATCC (CHOP, IMAGE:5863055; ERdj4, IMAGE: 1920927; p58^IPK probe A, IMAGE:9001935; p58^IPK probe B, IMAGE:2646147; ATF6α, IMAGE:4503659; MGP, IMAGE:4990627; EDEM, IMAGE:5324660; PDI-P5, IMAGE:2645183; RAMP4, IMAGE:3489738). Grp94 and Grp78 probes were kindly provided by R. J. Kaufman, Univ. of Michigan and the HEDJ probe the kind gift of L. Hendershot, St. Jude Children's Research Hospital, Memphis. Probe hybridization was performed with Ultrahyb buffer as recommended by the manufacturer (Ambion).
48 hours after transfection, 293T cells were washed twice with cold PBS and lysed in 1 ml lysis buffer (10 mM Tris pH7.4, 150 mM NaCl, 1% Triton X-100, 1 mM EDTA) containing a protease inhibitor cocktail tablet (Roche). Lysates were precleared by using protein A-agarose beads (Roche) for 1 hour and incubated with agarose conjugated anti-HA antibody (Santa Cruz) for overnight. The agarose beads were washed five times with the lysis buffer and resuspended in SDS-PAGE sample buffer. MEF cells were lysed in RIPA buffer (50 mM Tris pH 7.4, 150 mM NaCl, 1 mM EDTA, 1% Triton X-100, 1% sodium deoxycholate, 0.1% SDS). Lysates and immunoprecipitates were subjected to SDS-PAGE and transferred to Hybond P membrane (Amersham-Pharmacia).

| Molecule | XBP-1s protein level, time course ([1]; J558, MG-132 1 μM) | onset of XBP-1u increase ([1]; J558, MG-132 1 μM) | time of XBP-1u peak ([1]; J558, MG-132 1 μM) [h] | XBP-1u accumulation and XBP-1s decrease ([1]; J558 cells, 16 hrs) | effect on Tm-induced IRE1α phosphorylation (IRE1α; 2 hrs pretreatment with MG-132 10 μM) | induction of ERdj4 (XBP-1-dependent UPR target gene) (UPR target genes) | XBP-1u and XBP-1s protein induction (UPR target genes) | IRE1α phosphorylation (IRE1α; Tm-treated vs untreated cells) | genes whose expression increased, of the total pool of 12,000 genes (UPR target genes; wt MEF cells, Tm 6 hours) [%] |
| --- | --- | --- | --- | --- | --- | --- | --- | --- | --- |
| CC(C)C[C@@H](C=O)NC(=O)[C@H](CC(C)C)NC(=O)[C@H](CC(C)C)NC(=O)OCc1ccccc1 [MG-132] (Cbz-Leu-Leu-Leu-aldehyde) | rapidly declined after 4 hours of treatment and was barely detectable by 16 hours | as early as one hour post treatment | 8 | striking accumulation of XBP-1 u and a concomitant decrease in XBP-1s proteins | completely blocked the phosphorylation of IRE1α by Tm | normal induction of ERdj4 | induced both XBP-1u and XBP-1s proteins |  |  |
| tunicamycin [Tm] |  |  |  |  |  | not induced at all | induced both XBP-1u and XBP-1s proteins | increase in the phosphorylated (slower mobility) and decrease in unphosphorylated IRE1α species | 2.8 |

— US20040170622A1, “Methods and compositions for modulating XBP-1 activity” (President and Fellows of Harvard College, priority 2002, published 2004)
